# Test results taken from US8507251B2, “Medium and method for culturing Mycobacterium avium subspecies paratuberculosis” (priority 2009, dated 2013).
# Assays:
# [1] = test system: eight mycobacterial strains
# [2] = test system: MAP strain Dominic (ATCC 43545); assay: radiometric 14CO2 BACTEC 460 growth culture, MAP Dominic; format: cell-based, Mycobacterium avium subspecies paratuberculosis
# M. avium ATCC 25291 = assay: radiometric 14CO2 BACTEC 460 growth culture, M. avium 25291; format: cell-based, M. avium subspecies avium
# M. avium 101 = assay: radiometric 14CO2 BACTEC 460 growth culture, M. avium 101; format: cell-based, M. avium subspecies avium
# MAP 303 = assay: radiometric 14CO2 BACTEC 460 growth culture, MAP 303; format: cell-based, Mycobacterium avium subspecies paratuberculosis
# [3] = test system: bacteria (including M. phlei) and fungal growth; conditions: 100-250 μg/ml; cited from earlier work
# MAP strain UCF-4 = assay: radiometric 14CO2 BACTEC 460 growth culture, MAP UCF-4; format: cell-based, Mycobacterium avium subspecies paratuberculosis
# MAP ATCC 19698 = assay: radiometric 14CO2 BACTEC 460 growth culture, MAP 19698; format: cell-based, Mycobacterium avium subspecies paratuberculosis
# [4] = test system: M. tuberculosis, M. Kansasii, M. scrofulaceum, M. avium and M. intracellulare; conditions: 5 mg/ml; cited from earlier work
# single MAP strain = conditions: cited from earlier work
# [5] = test system: avirulent M. tb strain ATCC 25177; format: cell-based, M. tuberculosis
# [6] = test system: Bacillus Callmette Guerin (BCG) M. bovis Karlson & Lessel (ATCC 19015); format: cell-based
# M. avium = format: cell-based, M. avium subspecies avium; conditions: 4 μg/ml; value is a decrease
# [7] = 1 μg/ml, first of the two values (two experiments)
# [8] = 4 μg/ml, first of the two values (two experiments)
# [9] = 16 μg/ml, first of the two values (two experiments)
# [10] = 64 μg/ml, first of the two values (two experiments)
structure (smiles),measurement,setting,value
"CN1CCCC1c1cccnc1 (racemic) [(±) nicotine, nicotine]",effect on growth (in words),[1],neither enhancement nor an inhibitory effect
"CN1CCCC1c1cccnc1 (single isomer, unassigned; (-)) [(−) nicotine, nicotine]",effect on growth (in words),[1],neither enhancement nor an inhibitory effect
"CN1CCCC1c1cccnc1 (centres unmarked) [Nicotine, nicotine, reference compound]",percent change from control cGI (% ΔcGI / % −ΔcGI),[2]; [7],−2%
same,percent change from control cGI (% ΔcGI / % −ΔcGI),"[2]; 1 μg/ml, second of the two values (two experiments)",0%
same,percent change from control cGI (% ΔcGI / % −ΔcGI),[2]; [8],29%
same,percent change from control cGI (% ΔcGI / % −ΔcGI),"[2]; 4 μg/ml, second of the two values (two experiments)",30%
same,percent change from control cGI (% ΔcGI / % −ΔcGI),[2]; [9],1%
same,percent change from control cGI (% ΔcGI / % −ΔcGI),"[2]; 16 μg/ml, second of the two values (two experiments)",6%
same,percent change from control cGI (% ΔcGI / % −ΔcGI),[2]; [10],−12%
same,percent change from control cGI (% ΔcGI / % −ΔcGI),"[2]; 64 μg/ml, second of the two values (two experiments)",7%
same,percent change from control cGI (% ΔcGI / % −ΔcGI),M. avium ATCC 25291; 1 μg/ml,106%
same,percent change from control cGI (% ΔcGI / % −ΔcGI),M. avium ATCC 25291; 4 μg/ml,63%
same,percent change from control cGI (% ΔcGI / % −ΔcGI),M. avium ATCC 25291; 16 μg/ml,143%
same,percent change from control cGI (% ΔcGI / % −ΔcGI),M. avium ATCC 25291; 64 μg/ml,112%
same,percent change from control cGI (% ΔcGI / % −ΔcGI),M. avium 101; 1 μg/ml,55%
same,percent change from control cGI (% ΔcGI / % −ΔcGI),M. avium 101; 4 μg/ml,0%
same,percent change from control cGI (% ΔcGI / % −ΔcGI),M. avium 101; 16 μg/ml,15%
same,percent change from control cGI (% ΔcGI / % −ΔcGI),M. avium 101; 64 μg/ml,5%
same,percent change from control cGI (% ΔcGI / % −ΔcGI),MAP 303; 1 μg/ml,7%
same,percent change from control cGI (% ΔcGI / % −ΔcGI),MAP 303; 4 μg/ml,8%
same,percent change from control cGI (% ΔcGI / % −ΔcGI),MAP 303; 16 μg/ml,−22%
same,percent change from control cGI (% ΔcGI / % −ΔcGI),MAP 303; 64 μg/ml,7%
same,effect on growth (in words),[3],inhibition
same,percent change from control cGI (% ΔcGI / % −ΔcGI),MAP strain UCF-4; 1 μg/ml,−10%
same,percent change from control cGI (% ΔcGI / % −ΔcGI),MAP strain UCF-4; 4 μg/ml,−10%
same,percent change from control cGI (% ΔcGI / % −ΔcGI),MAP strain UCF-4; 16 μg/ml,−6%
same,percent change from control cGI (% ΔcGI / % −ΔcGI),MAP strain UCF-4; 64 μg/ml,9%
same,effect on growth (in words),[1],no effect on growth
same,percent change from control cGI (% ΔcGI / % −ΔcGI),MAP ATCC 19698; 1 μg/ml,−20%
same,percent change from control cGI (% ΔcGI / % −ΔcGI),MAP ATCC 19698; 4 μg/ml,−20%
same,percent change from control cGI (% ΔcGI / % −ΔcGI),MAP ATCC 19698; 16 μg/ml,−21%
same,percent change from control cGI (% ΔcGI / % −ΔcGI),MAP ATCC 19698; 64 μg/ml,−11%
same,effect on growth (in words),[4],Enhanced growth
same,effect on MAP growth (in words),"single MAP strain; 2 μg/ml, BACTEC 460 with OADC supplementation",Bactericidal inhibition
same,effect on MAP growth in culture (in words),"single MAP strain; solitary MAP strain, pure nicotine",inhibited MAP growth
"CN1CCCC1c1cccnc1 (single isomer, unassigned; (+)) [(+) nicotine, nicotine]",effect on growth (in words),[1],neither enhancement nor an inhibitory effect
"NC(=O)c1cccnc1 [Nicotinamide, nicotinamide]",percent change from control cGI (% ΔcGI / % −ΔcGI),"[2]; 0.1 μg/ml, second value printed in Table 4",32%
same,percent change from control cGI (% ΔcGI / % −ΔcGI),"[2]; 0.4 μg/ml, second value printed in Table 4",98%
same,percent change from control cGI (% ΔcGI / % −ΔcGI),[2]; [7],110%
same,percent change from control cGI (% ΔcGI / % −ΔcGI),"[2]; 1.6 μg/ml, second value printed in Table 4",156%
same,percent change from control cGI (% ΔcGI / % −ΔcGI),[2]; [8],115%
same,percent change from control cGI (% ΔcGI / % −ΔcGI),"[2]; 6.4 μg/ml, second value printed in Table 4",156%
same,percent change from control cGI (% ΔcGI / % −ΔcGI),[2]; [9],125%
same,percent change from control cGI (% ΔcGI / % −ΔcGI),[2]; [10],106%
same,effect on growth (in words),[2]; at the doses tested,enhanced
same,percent increase from control cGI (%+ΔcGI),"[2]; for 1, 4, 16 and 64 μg/ml, first experiment",≥ 100%
same,percent change from control cGI (% ΔcGI / % −ΔcGI),M. avium ATCC 25291; 0.1 μg/ml,23%
same,percent change from control cGI (% ΔcGI / % −ΔcGI),M. avium ATCC 25291; 0.4 μg/ml,105%
same,percent change from control cGI (% ΔcGI / % −ΔcGI),M. avium ATCC 25291; 1.6 μg/ml,157%
same,percent change from control cGI (% ΔcGI / % −ΔcGI),M. avium ATCC 25291; 6.4 μg/ml,144%
same,effect on growth (in words),M. avium ATCC 25291; at the doses tested,caused enhancement of growth
same,percent change from control cGI (% ΔcGI / % −ΔcGI),M. avium 101; 0.1 μg/ml,6%
same,percent change from control cGI (% ΔcGI / % −ΔcGI),M. avium 101; 0.4 μg/ml,−21%
same,percent change from control cGI (% ΔcGI / % −ΔcGI),M. avium 101; 1.6 μg/ml,7%
same,percent change from control cGI (% ΔcGI / % −ΔcGI),M. avium 101; 6.4 μg/ml,58%
same,effect on growth (in words),M. avium 101; at the doses tested,caused enhancement of growth
same,effect on growth (in words),[5],no effect
same,percent change from control cGI (% ΔcGI / % −ΔcGI),MAP 303; 0.1 μg/ml,−5%
same,percent change from control cGI (% ΔcGI / % −ΔcGI),MAP 303; 0.4 μg/ml,−28%
same,percent change from control cGI (% ΔcGI / % −ΔcGI),MAP 303; 1.6 μg/ml,11%
same,percent change from control cGI (% ΔcGI / % −ΔcGI),MAP 303; 6.4 μg/ml,3%
same,effect on growth (in words),MAP 303; at the doses tested,no effect
same,percent change from control cGI (% ΔcGI / % −ΔcGI),MAP strain UCF-4; 0.1 μg/ml,20%
same,percent change from control cGI (% ΔcGI / % −ΔcGI),MAP strain UCF-4; 0.4 μg/ml,52%
same,percent change from control cGI (% ΔcGI / % −ΔcGI),MAP strain UCF-4; 1.6 μg/ml,73%
same,percent change from control cGI (% ΔcGI / % −ΔcGI),MAP strain UCF-4; 6.4 μg/ml,79%
same,effect on growth (in words),MAP strain UCF-4; at the doses tested,enhanced
same,percent change from control cGI (% ΔcGI / % −ΔcGI),MAP ATCC 19698; 0.1 μg/ml,−6%
same,percent change from control cGI (% ΔcGI / % −ΔcGI),MAP ATCC 19698; 0.4 μg/ml,−2%
same,percent change from control cGI (% ΔcGI / % −ΔcGI),MAP ATCC 19698; 1.6 μg/ml,−8%
same,percent change from control cGI (% ΔcGI / % −ΔcGI),MAP ATCC 19698; 6.4 μg/ml,−7%
same,effect on growth (in words),MAP ATCC 19698; at the doses tested,no effect
same,effect on growth (in words),[6]; at the doses tested,no effect
"Nc1ccc(C(=O)O)c(O)c1 [PAS, para-amino salicylic acid, reference compound]",percent decrease from control cGI (%−ΔcGI),"MAP 303; 64 μg/ml, value is a decrease",80%
same,percent decrease from control cGI (%−ΔcGI),M. avium,≥ 94%
same,percent decrease from control cGI (%−ΔcGI),"MAP ATCC 19698; 64 μg/ml, value is a decrease",80%
same,percent decrease from control cGI (%−ΔcGI),[6]; 4 μg/ml,≥ 94%
